Assay: recombinant barcode read abundance after kanamycin selection (control-corrected) (log10(CPM+1)); higher = more efficient recombination; sequences stand for … in AGTGCAGAGAAAATCGGCCAGTTTTCTCTGCCTGCAGTCCGCATGCCGT…AGATTTATGCAGCGGACTGCCTTTCTCCCAAAGTGATAAACCGGACAGTATCATGGACCGGTTTTCCCGGTAATCCGTATTTGCAAGGTTGGTTTCACT; site = the 11-nt target
How it was run: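 Targets and IS621 bridge RNA target-binding loops were paired in oligos, each with a promoter, a barcode and the J23119-driven first 104 bridge RNA bases. A vector carrying the remaining 73 bp and a T7-inducible recombinase received these by Gibson cloning, and the pool was co-electroporated into E. coli with a donor plasmid. Duplicate plates contained chloramphenicol/ampicillin LB agar (control) or chloramphenicol/ampicillin/kanamycin with 0.1 mM IPTG. Recombination efficiency comes from averaged, control-corrected counts per million of recombinant-junction barcodes, reported as log10(CPM+1).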
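Also: IS621 recombinase and bridge RNA in Escherichia coli cells.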

CTGCGTACTTGGGTTCTAACCTGTTGCCG (site TCCAAGGCTTA)
recombinant barcode read abundance (log10): 0.0663

CTGCGTCCTTGGGTTCTAACCTGTTGCCT (site CTCCGTCCTAG)
recombinant barcode read abundance (log10): 0.121

CTGCGTCCTTGGGTTCTAACCTGTTGCCT (site CTGCGTCCTAG)
recombinant barcode read abundance (log10): 0.671

CTGGAAACTTGGGTTCTAACCTGTTGCCT (site CGGGTAACTAG)
recombinant barcode read abundance (log10): 0.0164

CTGGAAACTTGGGTTCTAACCTGTTGCCT (site CTGGAAACTAG)
recombinant barcode read abundance (log10): 1.23

CTGGACACTTGGGTTCTAACCTGTTGCCT (site CTAGACACTAG)
recombinant barcode read abundance (log10): 1.94

CTGGACACTTGGGTTCTAACCTGTTGCCT (site CTCGACACTAG)
recombinant barcode read abundance (log10): 0.0566

CTGGACACTTGGGTTCTAACCTGTTGCCT (site CTGGACACTAG)
recombinant barcode read abundance (log10): 1.83

CTGGACACTTGGGTTCTAACCTGTTGCCT (site CTTGACACTAG)
recombinant barcode read abundance (log10): 0.329

CTGGGCACTTGGGTTCTAACCTGTTGCCT (site CGGGGCACTAG)
recombinant barcode read abundance (log10): 0.164

CTGGGCACTTGGGTTCTAACCTGTTGCCT (site CTGGGCACTAG)
recombinant barcode read abundance (log10): 0.395

CTGGGCCCTTGGGTTCTAACCTGTTGCCT (site CTGAGCCCTAG)
recombinant barcode read abundance (log10): 0.12

CTGGGCCCTTGGGTTCTAACCTGTTGCCT (site CTGCGCCCTAG)
recombinant barcode read abundance (log10): 0.0544

CTGGGCCCTTGGGTTCTAACCTGTTGCCT (site CTGGGCCCTAG)
recombinant barcode read abundance (log10): 0.277

CTGGGCCCTTGGGTTCTAACCTGTTGCCT (site CTGTGCCCTAG)
recombinant barcode read abundance (log10): 0.214

CTGGGTCCTTGGGTTCTAACCTGTTGCTT (site CTGGGTCCTAA)
recombinant barcode read abundance (log10): 1.48

CTGGGTCCTTGGGTTCTAACCTGTTGCTT (site CTTGGTTCTAA)
recombinant barcode read abundance (log10): 0.179

CTGGTTCCTTGGGTTCTAACCTGTTGCCT (site CTGGCTCCTAA)
recombinant barcode read abundance (log10): 0.874

CTGGTTCCTTGGGTTCTAACCTGTTGCCT (site CTGGTTCCTAG)
recombinant barcode read abundance (log10): 1.2

CTGTTGTCTTGGGTTCTAACCTGTTGCCA (site CTGATGTCTTG)
recombinant barcode read abundance (log10): 0.204

CTGTTGTCTTGGGTTCTAACCTGTTGCCA (site CTGCTGTCTTG)
recombinant barcode read abundance (log10): 0.00714

CTGTTGTCTTGGGTTCTAACCTGTTGCCA (site CTGGTGTCTTG)
recombinant barcode read abundance (log10): 0.0643

CTGTTGTCTTGGGTTCTAACCTGTTGCCA (site CTGTTGTCTTG)
recombinant barcode read abundance (log10): 0.487

CTTACAGCTTGGGTTCTAACCTGTTGCCT (site CTTACAGCTAG)
recombinant barcode read abundance (log10): 0.644

CTTACAGCTTGGGTTCTAACCTGTTGCCT (site CTTACCGCTAG)
recombinant barcode read abundance (log10): 0.138

CTTACAGCTTGGGTTCTAACCTGTTGCCT (site CTTACGGCTAG)
recombinant barcode read abundance (log10): 0.0141

CTTACAGCTTGGGTTCTAACCTGTTGCCT (site CTTACTGCTAG)
recombinant barcode read abundance (log10): 0.147

CTTAGGACTTGGGTTCTAACCTGTTGCCA (site CTTAGGACTAG)
recombinant barcode read abundance (log10): 0.257

CTTAGGACTTGGGTTCTAACCTGTTGCCA (site CTTAGGACTCG)
recombinant barcode read abundance (log10): 0.0285

CTTAGGACTTGGGTTCTAACCTGTTGCCA (site CTTAGGACTGG)
recombinant barcode read abundance (log10): 0.0906

CTTAGGACTTGGGTTCTAACCTGTTGCCA (site CTTAGGACTTG)
recombinant barcode read abundance (log10): 0.265

CTTAGGACTTGGGTTCTAACCTGTTGCCG (site CTTAGGACTAG)
recombinant barcode read abundance (log10): 0.235

CTTAGGACTTGGGTTCTAACCTGTTGCCG (site CTTAGGACTCG)
recombinant barcode read abundance (log10): 0.577

CTTAGGACTTGGGTTCTAACCTGTTGCCG (site CTTAGGACTGG)
recombinant barcode read abundance (log10): 0.155

CTTAGGACTTGGGTTCTAACCTGTTGCCG (site CTTAGGACTTG)
recombinant barcode read abundance (log10): 0.199

CTTAGTACTTGGGTTCTAACCTGTTGCAT (site CTTAGTACTAT)
recombinant barcode read abundance (log10): 0.246

CTTAGTACTTGGGTTCTAACCTGTTGCAT (site GACGTGCCTCG)
recombinant barcode read abundance (log10): 0.432

CTTCAATCTTGGGTTCTAACCTGTTGCCT (site CTTAAATCTAG)
recombinant barcode read abundance (log10): 0.146

CTTCAATCTTGGGTTCTAACCTGTTGCCT (site CTTCAATCTAG)
recombinant barcode read abundance (log10): 0.267

CTTCAATCTTGGGTTCTAACCTGTTGCCT (site CTTGAATCTAG)
recombinant barcode read abundance (log10): 0.35

CTTCAATCTTGGGTTCTAACCTGTTGCCT (site CTTTAATCTAG)
recombinant barcode read abundance (log10): 0.0762

CTTCACCCTTGGGTTCTAACCTGTTGCCT (site CTTCAACCTAG)
recombinant barcode read abundance (log10): 0.134

CTTCACCCTTGGGTTCTAACCTGTTGCCT (site CTTCACCCTAG)
recombinant barcode read abundance (log10): 1.76

CTTCACCCTTGGGTTCTAACCTGTTGCCT (site CTTCAGCCTAG)
recombinant barcode read abundance (log10): 0.117

CTTCACCCTTGGGTTCTAACCTGTTGCCT (site CTTCATCCTAG)
recombinant barcode read abundance (log10): 0.00728

CTTCGAGCTTGGGTTCTAACCTGTTGCTG (site CTTCGAGCTCA)
recombinant barcode read abundance (log10): 1.52

CTTCGAGCTTGGGTTCTAACCTGTTGCTG (site CTTCGAGCTCC)
recombinant barcode read abundance (log10): 0.193

CTTCGAGCTTGGGTTCTAACCTGTTGCTG (site CTTCGAGCTCG)
recombinant barcode read abundance (log10): 0.184

CTTCGAGCTTGGGTTCTAACCTGTTGCTG (site CTTCGAGCTCT)
recombinant barcode read abundance (log10): 0.294

CTTCGCACTTGGGTTCTAACCTGTTGCCT (site CATCGCACTAG)
recombinant barcode read abundance (log10): 0.0381

CTTCGCACTTGGGTTCTAACCTGTTGCCT (site CCTCGCACTAG)
recombinant barcode read abundance (log10): 0.0814

CTTCGCACTTGGGTTCTAACCTGTTGCCT (site CGTCGCACTAG)
recombinant barcode read abundance (log10): 0.0111

CTTCGCACTTGGGTTCTAACCTGTTGCCT (site CTTCGCACTAG)
recombinant barcode read abundance (log10): 0.0708

CTTCGGGCTTGGGTTCTAACCTGTTGCAT (site CTTCGGGCTAT)
recombinant barcode read abundance (log10): 1.26

CTTCGGGCTTGGGTTCTAACCTGTTGCAT (site CTTTGAGCTAT)
recombinant barcode read abundance (log10): 0.242

CTTGCATCTTGGGTTCTAACCTGTTGCCT (site CTTGCATCTAG)
recombinant barcode read abundance (log10): 0.383

CTTGCATCTTGGGTTCTAACCTGTTGCCT (site GGGCACACTGT)
recombinant barcode read abundance (log10): 0.293

CTTGGAACTTGGGTTCTAACCTGTTGCCT (site CTTGGAACTAG)
recombinant barcode read abundance (log10): 0.224

CTTGGAACTTGGGTTCTAACCTGTTGCCT (site CTTGGACCTAG)
recombinant barcode read abundance (log10): 0.242

CTTGGAACTTGGGTTCTAACCTGTTGCCT (site CTTGGAGCTAG)
recombinant barcode read abundance (log10): 0

CTTGGAACTTGGGTTCTAACCTGTTGCCT (site CTTGGATCTAG)
recombinant barcode read abundance (log10): 0.228

CTTGGATCTTGGGTTCTAACCTGTTGCCT (site CTTGGAACTAG)
recombinant barcode read abundance (log10): 0.142

CTTGGATCTTGGGTTCTAACCTGTTGCCT (site CTTGGACCTAG)
recombinant barcode read abundance (log10): 0.116

CTTGGATCTTGGGTTCTAACCTGTTGCCT (site CTTGGAGCTAG)
recombinant barcode read abundance (log10): 0.0716

CTTGGATCTTGGGTTCTAACCTGTTGCCT (site CTTGGATCTAG)
recombinant barcode read abundance (log10): 0.913

CTTGGGCCTTGGGTTCTAACCTGTTGCCT (site CATGGGCCTAG)
recombinant barcode read abundance (log10): 0.0436

CTTGGGCCTTGGGTTCTAACCTGTTGCCT (site CCTGGGCCTAG)
recombinant barcode read abundance (log10): 0.16

CTTGGGCCTTGGGTTCTAACCTGTTGCCT (site CGTGGGCCTAG)
recombinant barcode read abundance (log10): 0.186

CTTGGGCCTTGGGTTCTAACCTGTTGCCT (site CTTGGGCCTAG)
recombinant barcode read abundance (log10): 0.417

CTTTGAACTTGGGTTCTAACCTGTTGCTA (site CTTTGAACTTA)
recombinant barcode read abundance (log10): 0.016

CTTTGAACTTGGGTTCTAACCTGTTGCTA (site TCGATCCCTAC)
recombinant barcode read abundance (log10): 0.102

CTTTGGCCTTGGGTTCTAACCTGTTGCTT (site CCTTGGGCTAA)
recombinant barcode read abundance (log10): 0.439

CTTTGGCCTTGGGTTCTAACCTGTTGCTT (site CTTTGGCCTAA)
recombinant barcode read abundance (log10): 0.0961

CTTTGTGCTTGGGTTCTAACCTGTTGCCT (site CTTAGGGCTAG)
recombinant barcode read abundance (log10): 0.32

CTTTGTGCTTGGGTTCTAACCTGTTGCCT (site CTTTGTGCTAG)
recombinant barcode read abundance (log10): 0.129

GAAACTGCTTGGGTTCTAACCTGTTGCCT (site GAAACTGCTAG)
recombinant barcode read abundance (log10): 0.736

GAAACTGCTTGGGTTCTAACCTGTTGCCT (site GACACTGCTAG)
recombinant barcode read abundance (log10): 0.211

GAAACTGCTTGGGTTCTAACCTGTTGCCT (site GAGACTGCTAG)
recombinant barcode read abundance (log10): 0.158

GAAACTGCTTGGGTTCTAACCTGTTGCCT (site GATACTGCTAG)
recombinant barcode read abundance (log10): 0.0634

GAAAGCTCTTGGGTTCTAACCTGTTGCGT (site GAAAGCTCTAC)
recombinant barcode read abundance (log10): 2.99

GAAAGCTCTTGGGTTCTAACCTGTTGCGT (site TCCTATGCTCG)
recombinant barcode read abundance (log10): 0.0782

GAAAGTGCTTGGGTTCTAACCTGTTGCCT (site CAAAGTGCTAG)
recombinant barcode read abundance (log10): 0.0857

GAAAGTGCTTGGGTTCTAACCTGTTGCCT (site GAAAGTGCTAG)
recombinant barcode read abundance (log10): 1.23

GAAATAACTTGGGTTCTAACCTGTTGCGT (site AGCCCTCCTCT)
recombinant barcode read abundance (log10): 0.169

GAAATAACTTGGGTTCTAACCTGTTGCGT (site GAAATAACTAC)
recombinant barcode read abundance (log10): 0.995

GAAATGTCTTGGGTTCTAACCTGTTGCCT (site GAAATGTCTAG)
recombinant barcode read abundance (log10): 1.75

Source: the supplement of paper PMC11208160
